The subject of one data set is Notch1. As to the kind of experiment: CBF1 binding site luciferase reporter assay. The class given is cell-based, human. The conditions noted are these: DAPT 50 μM pretreatment 45 minutes, then 4 mM VPA. The method, then:
Luciferase Reporter Assays GI carcinoid tumor cells were transiently transfected with luciferase constructs as previously described (Kunnimalaiyaan, M. et al., Conservation of the Notch1 signaling pathway in gastrointestinal carcinoid cells A J Physiol Gastrointest Liver Physiol 2005; 289:G636-642). Wild-type (4xwtCBF1Luc; 2 μg) or mutant (4xmutCBF1Luc; 2 μg) CBF1-luciferase reporter plasmids were co-transfected with CMV-β-gal (0.5 μg) (Hsieh J J et al., Truncated Mammalian Notch1 Activates CBF1/RBPJk-Repressed Genes by a Mechanism Resembling That of Epstein-Barr Virus EBNA2. Mol Cell Biol 1996; 16:952-959). In experiments with the γ-secretase inhibitor, N-[N-(3,5-difluorophenacetyl)-L-alanyl]-S-phenylglycine t-butyl ester (DAPT; EMD Biosciences, Darmstadt, Germany), to inhibit Notch1 cleavage and activation, cells were pretreated for 45 minutes with DAPT (50 μM) then treated with 4 mM VPA. […] Luciferase levels were measured using a Monolight 2010 Luminometer (Analytical Luminescence Laboratory, San Diego, Calif.). […]
Background: A reporter such as luciferase makes a cellular process visible.

For another data set, the system named is MEK. As to the kind of experiment: MEK inhibitors and Notch1-mediated hormone suppression. It is filed as cell-based, human. The conditions noted are these: PD098059 25-50 uM or U0126 5-20 uM pre-treatment. The procedure:
1) MEK inhibitors. BON, BON-Notch1, H727, H727-Notch1, TT, and TT-Notch1 cells are pre-treated with either PD098059 (25-50 uM) or U0126 (5-20 uM) (both well-characterized MEK inhibitors) (Sippel R S, et al., Am J Physiol Gastrointest Liver Physiol 2003; 285:G245-G254; Sippel R S, et al., Surgery 2003; 134:866-871), alone or in combination, followed by addition of control or doxycycline (1 μg) for 24, 48, and 96 hours. Cells are then analyzed with the following methods.
2) Confirmation of MEK inhibition. To confirm MEK inhibition after treatment with PD098059 and U0126, cellular extracts are analyzed by Western blots utilizing antibodies against MEK, phospho-MEK, ERK1/2, and phospho-ERK1/2. MAPK in vitro kinase assay with a commercially available kit (Cell Signal Technology) is used to confirm blockade of MEK activity.
3) hASH1 and NE marker expression. To determine if MEK inhibition blocks Notch1-mediated NE marker suppression, cellular extracts are analyzed using western blots with hASH1, chromogranin A, synaptophysin, and neuron-specific enolase, and serotonin or calcionin secretion will be assessed using an ELISA assay, as described above.

The subject of data set [1] is H727 human lung carcinoid cancer cells. The data set can be described thus: Western blot analysis of pulmonary carcinoid cells. The class given is cell-based. For orientation: A western blot detects proteins with antibodies after separation by electrophoresis.
Data set [2] relates to BON human GI carcinoid cancer cells. As to the kind of experiment: Western blot analysis of GI carcinoid cells. The class given is cell-based. The procedure:
Cell Culture BON human GI carcinoid cancer cells, kindly provided by Drs. B. Mark Evers and Courtney M. Townsend, Jr.
Total protein concentrations were quantified with a bicinchoninic acid assay kit (Pierce Biotechnology, Rockford, Ill., USA). Denatured cellular extracts were resolved by SDS-PAGE, transferred to nitrocellulose membranes (Schleicher and Schuell, Keene, N.H., USA), blocked in milk, and incubated with appropriate antibodies. The antibody dilutions were: 1:1,000 for Notch1 (Santa Cruz Biotechnology, Santa Cruz, Calif., USA), mammalian achaete-scute homolog 1 (ASCL1; BD Biosciences, San Diego, Calif., USA), chromogranin A (Zymed Laboratories, San Francisco, Calif., USA), and cyclin D1 (Cell Signaling Technology, Danvers, Mass., USA), 1:2,000 for p21 (Cell Signaling Technology) and p27 (Santa Cruz Biotechnology), and 1:10,000 for glyceraldehyde-3-phosphate dehydrogenase (G3PDH; Trevigen, Gaithersburg, Md., USA). Horseradish peroxidase conjugated goat anti-rabbit or goat anti-mouse secondary antibodies (Pierce Biotechnology) were used depending on the source of the primary antibody. For visualization of the protein signal, Immunstar (Bio-Rad Laboratories, Hercules, Calif., USA) or SuperSignal West Femto (Pierce Biotechnology) kits were used per the manufacturer's instructions.
Cell Culture BON human gastrointestinal (GI) carcinoid tumor cells, kindly provided by Drs. B. Mark Evers and Courtney M. Townsend, Jr.
Total protein concentrations were quantified with a bicinchoninic acid assay kit (Pierce Biotechnology, Rockford, Ill.). Denatured cellular extracts were resolved by SDS-PAGE, transferred onto nitrocellulose membranes (Schleicher and Schuell, Keene, N H), blocked in milk, and incubated with appropriate antibodies. The antibody dilutions were: 1:1,000 for Notch1 (Santa Cruz Biotechnology, Santa Cruz, Calif.), mammalian achaete-scute homolog 1 (ASCL1; BD Biosciences, San Diego, Calif.), chromogranin A (Zymed Laboratories, San Francisco, Calif.), and cyclin D1 (Cell Signaling Technology, Danvers, Mass.), 1:2,000 for p21 (Cell Signaling Technology) and p27 (Santa Cruz Biotechnology), and 1:10,000 for glyceraldehyde-3-phosphate dehydrogenase (G3PDH; Trevigen, Gaithersburg, Md.). Horseradish peroxidase conjugated goat anti-rabbit or goat anti-mouse secondary antibodies (Pierce Biotechnology) were used depending on the source of the primary antibody. For visualization of the protein signal, Immunstar (Bio-Rad Laboratories, Hercules, Calif.) or SuperSignal West Femto (Pierce Biotechnology) kits were used per the manufacturer's instructions.

Another data set relates to carcinoid tumor cells. The following applies: cited from earlier work.
The next data set relates to hASH1. The conditions noted are these: small cell lung cancer cells; cited from earlier work.

On to `C[C@H](NC(=O)Cc1cc(F)cc(F)c1)C(=O)N[C@H](C(=O)OC(C)(C)C)c1ccccc1` [DAPT, N-[N-(3,5-difluorophenacetyl)-L-alanyl]-S-phenylglycine t-butyl ester], for which the “effect of VPA on CBF1 binding” value in the data set on Notch1 is on record as “blocked the effect of VPA on CBF1 binding”. Take `COc1cccc(-c2cc(=O)c3ccccc3o2)c1N` [PD098059]: the Notch1-mediated hormone suppression result in the data set with MEK is reported as “block”. As for `O=C(CCCCCCC(=O)Nc1ccccc1)NO` [SAHA, suberoylanilide hydroxamic acid], the “chromogranin A level” value was “complete suppression” in data set [1] (50 μM, 2 days) and “only modest inhibition” in data set [2] (SBHA/SAHA, 2 days of treatment). Besides, the “concentrations at which significant Notch1 induction was seen” value in data set [1] (48 hours) is 20 to 30 µM. For the same compound, the ASCL1 protein result in data set [1] (SBHA/SAHA treatment, 48 hours) was “dose-dependent decrease”; in data set [2] (30 μM, 2 days), “undetectable level”; in data set [2] (SBHA/SAHA treatment, 48 hours) it was “dose-dependent decrease”. `N#CC(=C(/N)Sc1ccccc1N)/C(C#N)=C(\N)Sc1ccccc1N` [U0126]: the Notch1-mediated hormone suppression entry with MEK was “block”.

Turning to `CCCC(=O)[O-].[Na+]` [sodium butyrate], in the data set on carcinoid tumor cells, the “cyclin D1” value is listed as “concomitant downregulation”; the “p21 and p27” value is “increase”. Consider `CC(/C=C/C(=O)NO)=C\[C@@H](C)C(=O)c1ccc(N(C)C)cc1` [trichostatin A], for which, in the data set on carcinoid tumor cells, the “cyclin D1” value is listed as “concomitant downregulation”; the “p21 and p27” value was “increase”.

As for “c5p25: hASH1 anti-sense oligonucleotide 5′-UCCUACUAAGGCUGC-3′ (SEQ ID NO: 2) (listed as RNA, chemistry not given here)”, the hASH1 expression entry in the data set with hASH1 is “minimal hASH1 inhibitory activity”. As for “c5p1476: hASH1 anti-sense oligonucleotide 5′-GGAGCCCACUGCUUU-3′ (SEQ ID NO: 1), directed at the hASH1 3′UTR (listed as RNA, chemistry not given here)”, the hASH1 expression result with hASH1 is reported as “very potent inhibitor”.

In the case of “c5pMiss1: missense oligonucleotide 5′-GCUACAUCUGGUCGC-3′ (SEQ ID NO: 3) (listed as RNA, chemistry not given here)”, the hASH1 expression result in the data set on hASH1 is “no affect”. As for “c5pMiss2: missense oligonucleotide 5′-CACUGAUGCACCUGU-3′ (SEQ ID NO: 4) (listed as RNA, chemistry not given here)”, the hASH1 expression result with hASH1 is on record as “no affect”.

The record behind these values is patent publication US8338482B2, “Modulating notch1 signaling pathway for treating neuroendocrine tumors” (Wisconsin Alumni Research Foundation, priority 2007, dated 2012).
